{"source": "patent US10370718B2", "about": "“Use of HLA genetic status to assess or select treatment of celiac disease” (ImmusanT, Inc., priority 2014, dated 2019)", "tested_on": "circulating cytokines", "experiment": "Circulating cytokines/chemokines in plasma after dosing (MAGPIX multiplex platform)", "assay_type": "in vivo, human", "details": "dose of 150 micrograms; same dose in both genotype groups", "experimental": "3 cohorts of subjects with HLA-DQ2.5+(heterozygous or homozygous) biopsy-proven Celiac disease on a gluten-free diet for at least 1 year were included in the study. The first cohort (Cohort 1) contained 12 subjects who were dosed with 150 mcg of a gluten peptide composition (an equimolar composition in sodium chloride 0.9% USP of 3 peptides: ELQPFPQPELPYPQPQ (SEQ ID NO: 9), EQPFPQPEQPFPWQP (SEQ ID NO: 10), and EPEQPIPEQPQPYPQQ (SEQ ID NO: 11), each peptide comprising an N-terminal pyroglutamate and C-terminal amidated amino acid) or a placebo (sodium chloride 0.9% USP) intradermally, twice a week for 8 weeks total. The second cohort (Cohort 2) contained 13 subjects who were dosed with 300 mcg of the gluten peptide composition or the placebo intradermally, twice a week for 8 weeks total. […] Both Cohorts 1 and 2 received an oral gluten challenge and were assessed for gamma-interferon (gIFN) release and then returned to baseline prior to starting the treatment regimen. […]\nThe progress of each subject before, during and after the trial was assessed using multiple tests including serology (tTG-IgA, DGP-IgG, DGP-IgA, and EMA-IgA), histology, and IFNg whole blood release assay, and cytokine/chemokines in plasma (measured by MAGPIX® multiplex platform). Plasma cytokines and chemokines were measured at several timepoints pre and post first and last dose. […]", "note": "Square brackets hold non-standard residues; d marks the D form. pGlu = O=C1CC[C@@H](C(=O)O)N1"}
{"substance": "gluten peptide composition: equimolar composition in sodium chloride 0.9% USP of 3 peptides (SEQ ID NO: 9, 10, 11), each with N-terminal pyroglutamate and C-terminal amidated amino acid (chain 1 [pGlu]LQPFPQPELPYPQPQ-NH2; chain 2 [pGlu]QPFPQPEQPFPWQP-NH2; chain 3 [pGlu]PEQPIPEQPQPYPQQ-NH2)", "values": [{"measurement": "levels of circulating cytokines in response to administration, HLA-DQ2.5 homozygous subjects compared to subjects with other genotypes", "value": "generally increased levels of circulating cytokines"}]}
